Activity calls are given as the source filed them. The calls are words filed in the database; no cut-off is given here.
How the values were obtained:
[1] = molecular target: T1, Thioredoxin reductase 1, cytoplasmic (Rattus norvegicus, UniProt O89049); test: Inhibition of rat liver cytosolic TrxR1 by spectrophotometry
T1 sequence (O89049 whole entry): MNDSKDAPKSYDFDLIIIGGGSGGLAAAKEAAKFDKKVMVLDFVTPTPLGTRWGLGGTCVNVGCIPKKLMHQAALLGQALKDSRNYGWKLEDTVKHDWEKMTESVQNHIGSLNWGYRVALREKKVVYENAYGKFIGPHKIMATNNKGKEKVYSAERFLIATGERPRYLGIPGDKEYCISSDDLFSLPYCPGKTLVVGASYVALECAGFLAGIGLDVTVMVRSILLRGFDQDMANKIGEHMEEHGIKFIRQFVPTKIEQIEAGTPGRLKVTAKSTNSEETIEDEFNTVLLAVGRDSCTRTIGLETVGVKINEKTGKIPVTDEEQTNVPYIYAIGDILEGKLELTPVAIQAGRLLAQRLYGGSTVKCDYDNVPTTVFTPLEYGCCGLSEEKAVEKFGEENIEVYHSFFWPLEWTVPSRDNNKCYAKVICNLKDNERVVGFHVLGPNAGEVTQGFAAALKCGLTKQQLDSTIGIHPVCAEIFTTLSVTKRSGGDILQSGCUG

[2] = molecular target: Thioredoxin reductase 2, mitochondrial (Rattus norvegicus, UniProt Q9Z0J5); test: Inhibition of rat liver mitochondrial TrxR2 by spectrophotometry
Chain of Thioredoxin reductase 2, mitochondrial (Q9Z0J5 whole entry): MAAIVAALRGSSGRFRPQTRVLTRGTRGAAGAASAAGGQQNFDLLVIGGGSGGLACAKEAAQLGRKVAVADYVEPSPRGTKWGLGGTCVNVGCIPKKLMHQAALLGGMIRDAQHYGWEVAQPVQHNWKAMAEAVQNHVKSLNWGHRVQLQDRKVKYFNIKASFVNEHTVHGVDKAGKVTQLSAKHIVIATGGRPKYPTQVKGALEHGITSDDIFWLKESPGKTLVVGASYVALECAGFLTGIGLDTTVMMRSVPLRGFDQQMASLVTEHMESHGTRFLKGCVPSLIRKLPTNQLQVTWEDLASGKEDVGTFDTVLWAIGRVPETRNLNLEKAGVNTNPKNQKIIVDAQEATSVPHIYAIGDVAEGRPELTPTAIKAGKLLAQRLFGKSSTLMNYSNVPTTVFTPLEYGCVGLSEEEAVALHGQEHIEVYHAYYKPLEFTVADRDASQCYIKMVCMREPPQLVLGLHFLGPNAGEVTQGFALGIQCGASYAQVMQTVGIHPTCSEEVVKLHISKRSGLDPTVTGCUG

[3] = molecular target: T1, Thioredoxin reductase 1, cytoplasmic; test: Mixed-type inhibition of rat liver cytosolic TrxR1 by Lineweaver-Burk plot analysis
[4] = molecular target: T1, Thioredoxin reductase 1, cytoplasmic; test: Mixed-type inhibition of rat liver cytosolic TrxR1 at protein-substrate complex by Lineweaver-Burk plot analysis
[5] = molecular target: T2, Thioredoxin reductase 1, cytoplasmic (Rattus norvegicus) (UniProt O89049); test: Inhibition of rat liver cytosolic TrxR1 at 50 to 100 uM by spectrophotometry in presence of 0.025 mM NADPH
T2 sequence (whole entry): T1 sequence (O89049 whole entry)

Glutathione reductase = molecular target: T3, Glutathione reductase (Saccharomyces cerevisiae S288c, UniProt P41921); test: Inhibition of yeast glutathione reductase by spectrophotometry
T3 sequence (P41921 whole entry): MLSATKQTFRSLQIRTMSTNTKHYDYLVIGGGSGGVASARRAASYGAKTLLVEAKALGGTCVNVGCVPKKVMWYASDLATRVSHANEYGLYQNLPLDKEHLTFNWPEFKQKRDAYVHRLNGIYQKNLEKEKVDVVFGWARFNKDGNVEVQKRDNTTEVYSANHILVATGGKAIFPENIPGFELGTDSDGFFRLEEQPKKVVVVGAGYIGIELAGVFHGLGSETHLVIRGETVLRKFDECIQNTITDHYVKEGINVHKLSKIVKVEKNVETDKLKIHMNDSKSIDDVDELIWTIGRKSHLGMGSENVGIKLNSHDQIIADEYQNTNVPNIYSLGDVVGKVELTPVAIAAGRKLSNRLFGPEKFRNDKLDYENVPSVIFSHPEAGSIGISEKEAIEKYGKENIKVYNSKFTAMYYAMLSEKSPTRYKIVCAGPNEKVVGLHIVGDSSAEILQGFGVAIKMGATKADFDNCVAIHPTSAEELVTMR

[6] = molecular target: T2, Thioredoxin reductase 1, cytoplasmic (Rattus norvegicus); test: Inhibition of rat liver cytosolic TrxR1 at 5 uM after 2 mins by spectrophotometry
[7] = molecular target: T2, Thioredoxin reductase 1, cytoplasmic (Rattus norvegicus); test: Inhibition of rat liver cytosolic TrxR1 at 100 uM by spectrophotometry in presence of 0.25 mM NADPH
[8] = molecular target: Thioredoxin reductase 2, mitochondrial (Rattus norvegicus) (UniProt Q9Z0J5); test: Inhibition of rat liver mitochondrial TrxR2 at 100 uM by spectrophotometry in presence of 0.25 mM NADPH
Chain of Thioredoxin reductase 2, mitochondrial (Rattus norvegicus) (Q9Z0J5 whole entry): as the sequence (Q9Z0J5 whole entry) above

[9] = molecular target: T2, Thioredoxin reductase 1, cytoplasmic (Rattus norvegicus); test: Inhibition of rat liver cytosolic TrxR1 at 20 uM after 1 hr by spectrophotometry
[10] = molecular target: T2, Thioredoxin reductase 1, cytoplasmic (Rattus norvegicus); test: Inhibition of rat liver cytosolic TrxR1 at 20 uM after 2 mins by spectrophotometry

| SMILES | IC50 ([1]; read-out: IC50) | IC50 ([2]; read-out: IC50) | other results |
| --- | --- | --- | --- |
| Cc1cc(O)c2c(c1)C(=O)c1cccc(O)c1C2=O [CHRYSOPHANOL] | 194 µM | 181 µM |  |
| O=C(O)c1cc(O)c2c(c1)C([C@H]1c3cc(C(=O)O)cc(O)c3C(=O)c3c(O[C@@H]4O[C@H](CO)[C@@H](O)[C@H](O)[C@H]4O)cccc31)c1cccc(O[C@@H]3O[C@H](CO)[C@@H](O)[C@H](O)[C@H]3O)c1C2=O (some centres not stated) [SENNOSIDE A,B] | > 200 µM | > 200 µM |  |
| O=C1c2c(O)cccc2C([C@@H]2O[C@H](CO)[C@@H](O)[C@H](O)[C@H]2O)c2cc(CO)cc(O)c21 (some centres not stated) [ALOIN] | > 200 µM | > 200 µM |  |
| O=C1c2ccccc2C(=O)c2c(O)ccc(O)c21 [QUINIZARIN] | > 200 µM | > 200 µM |  |
| COc1cc(O)c2c(c1)C(=O)c1cc(C)cc(O)c1C2=O [PHYSCION] | 185 µM | 132 µM |  |
| Cc1cc(O)c2c(c1)C(=O)c1cc(O[C@@H]3O[C@@H](C)[C@H](O)[C@@H](O)[C@H]3O)cc(O)c1C2=O [FRANGULIN A] | > 200 µM | > 200 µM |  |
| Cc1cc(O)c2c(=O)c3c(O)cc(O)c4c5c(O)cc(O)c6c(=O)c7c(O)cc(CO)c8c1c2c(c34)c(c65)c78 [PSEUDOHYPERICIN] | 4.6 µM | 7.9 µM | IC50 ([1]; read-out: pIC50 (converted)): 4.41 µM; IC50 ([2]; read-out: pIC50 (converted)): 7.45 µM; Ki [3]: 1.9 µM; Ki [4]: 8.1 µM; inhibition [5]: Active; IC50 (Glutathione reductase): 2.2 µM; inhibition [6]: 50%; inhibition [7]: Active; inhibition [8]: Active |
| O=C1c2ccccc2Cc2ccccc21 [ANTHRONE] | > 200 µM | > 200 µM |  |
| O=C1c2cccc(O)c2C(=O)c2c(O)cc(CO)cc21 [ALOE-EMODIN] | 180 µM | > 200 µM |  |
| O=C(O)c1cc(O)c2c(c1)C(=O)c1cccc(O)c1C2=O [RHEIN] | 84 µM | 123 µM |  |
| Cc1cc(O)c2c(c1)C(=O)c1c(c(O)cc(O)c1-c1c(O[C@@H]3O[C@H](CO)[C@@H](O)[C@H](O)[C@H]3O)cc(O)c3c1C(=O)c1cc(C)cc(O)c1C3=O)C2=O [SKYRIN GLUCOSIDE] | > 200 µM | > 200 µM |  |
| Cc1cc(O)c2c(=O)c3c(O)cc(O)c4c5c(O)cc(O)c6c(=O)c7c(O)cc(C)c8c1c2c(c34)c(c78)c65 [HYPERICIN] | 198 µM | 49 µM | IC50 ([1]; read-out: pIC50 (converted)): 158 µM; IC50 ([2]; read-out: pIC50 (converted)): 43.2 µM; IC50 (Glutathione reductase): 3.67 µM; inhibition [9]: 60%; inhibition [10]: 20%; inhibition [7]: inactive; inhibition [8]: inactive |
| O=C1c2cccc(O)c2C(=O)c2c(O)cccc21 [DANTHRON] | > 200 µM | > 200 µM |  |

— ChEMBL document CHEMBL1641523, “Hypericins and thioredoxin reductase: Biochemical and docking studies disclose the molecular basis for effective inhibition by naphthodianthrones” (Bioorg Med Chem, 2011)
